Legend:
[1] = system: CD8+ T cells; assay: ELISPOTs detection of IFN-gamma secretion by peptide-specific CD8+ T cells; type: cell-based, human; conditions: ratio of spot numbers; >2 immunogenic
[2] = system: T2 cells; assay: LDH release assay, killing of peptide-loaded T2 target cells by CD8+ T cells; type: cell-based, human; conditions: T2 loaded with wild-type FMVDGSWSI, 4 h
Method: The cells cultured in Example 3 were co-cultured with T2 cells loaded with the mutant peptides of the present invention or the wild-type peptide or without a peptide. A maximum release well, a volume correction well, a medium control well, a spontaneous release well and control wells for example at different effector-to-target ratios (ratios of T cells to T2 cells) were set in this experiment. Three replicate wells were set for each group. After 4 h, 50 μl of the co-culture supernatant was taken out and added to 50 μl of LDH substrate mixture to catalyze the reaction of LDH substrate. Finally, the plates were read at a wavelength of 490 nm, with a reference wavelength of 680 nm, and the killing activity against target cells T2 was calculated based on the control wells.

[3] = system: CD8+ T cells; assay: ELISPOTs detection of IFN-gamma secretion by peptide-specific CD8+ T cells; type: cell-based, human; conditions: for Conclusion (immunogenicity): ELISPOTs; for Number of spots in the wild-type peptide group: T cells activated by listed peptide + T2 loaded with wild-type peptide FMVDGSWSI, 20 h
Excerpt: In this example, a ELISPOTs detection kit (Cat. No.: 3420-4AST-10, MABTECH) was used to verify the activation of an immune response of CD8+ T cells by the peptides of the present invention.
Principle of the ELISPOTs detection method is as follows: CD8+ T cells can specifically recognize the complex of HLA-A0201 and a peptide. The population of T cells recognizing the complex of the peptide and HLA-A0201 is varying, depending on the peptide sequence. Since T2 cells express HLA-A0201, CD8+ T cells can specifically recognize the T2 cells loaded with a peptide. After specific recognition of the complex of HLA-A0201 and the peptide, peptide-specific CD8+ T cells can be activated again to secrete IFN-gamma interferon. The IFN-gamma interferon secreted by the activated CD8+ T cells can be captured by antibodies on the ELISPOTs plate. Finally, the enzyme-conjugated antibody that recognizes IFN-gamma can degrade the substrate through the enzyme conjugated thereto and develop color, eventually producing spots. The number of spots represents the number of cells that are activated to secrete IFN-gamma interferon.
The cultured cells from Example 3 were added, along with T2 cells loaded with the mutant peptide […] of the present invention and the wild-type peptide […], respectively, into ELISPOTs plates, and cultured for 20 h, and then a ELISPOTs detection was performed (see the kit instruction). Finally, the spots produced by the ELISPOTs detection were counted.
The peptide was determined to have immunogenicity when the number of spots of the tested peptide/the number of spots of an unrelated peptide>2; that is, if the number of spots caused by the tested peptide is more than twice than that of an unrelated peptide, the tested peptide is determined to have immunogenicity.

[4] = target: T1, HLA-A0201 (Homo sapiens, UniProt P04439, D140Y/D185E/D98H/E176V/E277Q/G131W/G231S/I119V/I121R/I166T/I218V/L300P/L318F/N151K/N90K/P208A/P217A/Q86G/Q94H/R138H/R169H/T345S); assay: Affinity verification of the peptides to T2 cells (flow cytometry, FITC anti-HLA-A0201); type: cell-based; conditions: added peptide 100 μM, FI>1.5 high affinity for HLA-A0201, listed as wild-type peptide
T1 construct: T2 cells (a lymphocyte, tumor cell line, expressing HLA-A0201); host or cells: T2 cells (TAP-deficient T/B lymphocyte hybridoma, HLA-A2 positive)
Method: 10 μg/ml of each peptide as described above was added, and human β2 microglobulin (at a final concentration of 3 μg/ml) was added and cultured overnight in an incubator (37° C., 5% CO2). Two replicate wells were set up for each group.
Cells were collected by centrifugation of the cell culture at 200 g for 5 minutes. The collected cells were washed twice with PBS, and then directly incubated with FITC-conjugated anti-HLA-A0201 monoclonal antibody at 4° C. for 30 minutes. The mean fluorescence intensity (MFI) was then detected and analyzed by flow cytometer (BD FACSJazz™) and its software. The fluorescence index (FI) was calculated by using the following formula: FI=[MFIsample−MFIbackground]/MFIbackground;

[5] = effector-to-target ratio (10:1)

FLVDGFWSI
Fold (tested/wild-type) [1]: 11.21
killing activity against target cells T2 ([2]; effector-to-target ratio (1:1)): 2.65%
killing activity against target cells T2 [2, 5]: 5.53%
Conclusion (immunogenicity) [3]: immunogenic
Number of spots in the wild-type peptide group [3]: 28

FLVDGFWSL
Fold (tested/wild-type) [1]: 10.26
killing activity against target cells T2 ([2]; effector-to-target ratio (1:1)): 3.13%
killing activity against target cells T2 [2, 5]: 6.33%
Conclusion (immunogenicity) [3]: immunogenic
Number of spots in the wild-type peptide group [3]: 30

FLVDGFWSV
Fold (tested/wild-type) [1]: 9.71
killing activity against target cells T2 ([2]; effector-to-target ratio (1:1)): 3.26%
killing activity against target cells T2 [2, 5]: 6.01%
Conclusion (immunogenicity) [3]: immunogenic
Number of spots in the wild-type peptide group [3]: 31

FMVDGFWSL
Fold (tested/wild-type) [1]: 8.86
killing activity against target cells T2 ([2]; effector-to-target ratio (1:1)): 3.12%
killing activity against target cells T2 [2, 5]: 4.91%
Conclusion (immunogenicity) [3]: immunogenic
Number of spots in the wild-type peptide group [3]: 37

FMVDGFWSV
Fold (tested/wild-type) [1]: 7.87
killing activity against target cells T2 ([2]; effector-to-target ratio (1:1)): 3.37%
killing activity against target cells T2 [2, 5]: 5.63%
Conclusion (immunogenicity) [3]: immunogenic
Number of spots in the wild-type peptide group [3]: 41

FMVDGSWSI [wild-type COL14A1 peptide used as comparator]
FI (fluorescence index) [4]: greater than 1.5

Reference: US11612643B2, “Col14A1-derived tumor antigen polypeptide and use thereof” (Genoimmune Therapeutics Co., Ltd., priority 2016, dated 2023)
